From US6495588B2, “Scytonemin and methods of using thereof” (The Regents of the University of California, priority 2000, dated 2002)
Where two headings read alike, the source gives them in different places.

What was measured:
GST-PLK1 = biological target: T1, GST-PLK1 (Homo sapiens, UniProt P53350); test: GST-Plk kinase activity kinetic assay (phosphorylation of GST-cdc25C); assay type: biochemical; conditions: for reduction of GST-PLK1 activity: preincubation 0-45 minutes; for Ki: 10-25 μM ATP, 2, 4, 6 μM SCY
T1 construct: made in house
Experimental: GST-PLK1, and GST-cdc25C were synthesized as described in Roshak et al. (2000), which is herein incorporated by reference. GST-PLK1 and GST-cdc25C were purified to 20% and 60% purity as determined by SDS-PAGE analysis and Coomassie Blue staining. The remaining impurities were determined to be free GST.
Kinase reactions comprised 350 nM GST-cdc25C, 0.5 μCi [^33P]-γATP (NEN, Cambridge, Mass.), 10 μM unlabelled ATP (Sigma, St. Louis, Mo.), 20 nM GST-PLK1 in kinase reaction buffer comprising 20 mM HEPES (pH 7.4), 50 mM KCl, 10 mM MgCl2, 1 mM EGTA, 0.5 mM DTT. Enzyme and substrates were diluted individually in kinase buffer and the PLK1 solution was pre-activated by incubating at 37° C. for 1 hour prior to its addition to the assay as described in Roshak et al. (2000).
50 μl reactions were conducted in 96 well polypropylene plates. First, 1 nM to 10 μM SCY dissolved in 100% DMSO was added, followed by the addition of enzyme and substrate to give a final concentration of 4% DMSO. The reactions were initiated by the addition of ATP. The reactions progressed for 60 minutes at 37° C., and were then stopped with 25 mM EDTA and 1 mM unlabeled ATP. The samples were transferred to 96 well 0.45 μm millipore filtration plates (Millipore, Bedford, Mass.), the proteins were precipitated with a 10% TCA, 5% sodium pyrophosphate solution (TCA-NaPP), and the plates were filtered using a Millipore microplate filtration unit (Millipore, Bedford, Mass.). The plates were washed twice with the TCA-NaPP solution, twice with 75 mM phosphoric acid, and twice with PBS. After drying at room temperature, scintillation fluid was added to the plate, and [^33P]-γATP incorporation was measured on a Packard Top-Count.
Analysis by autoradiography was performed as described in Roshak et al. (2000). Briefly, GST-PLK1 (20 nM/assay), […], 1 μCi [^32P]-γATP, and 350 nM GST-cdc25C were incubated in microcentrifuge tubes (50 μl/assay) for 60 minutes at 37° C. in the presence of 1 to 10 μM SCY and 10 μM hymenialdisine. The reactions were terminated with 25 mM EDTA, separated by SDS-PAGE and GST-cdc25C phosphorylation was visualized using Imagequest (Molecular Dynamics, Sunnyvale, Calif.). 10 μM hymenialdisine served as a positive control for each assay described above.
To determine whether SCY was acting as and ATP analogue, ATP competition assays were conducted as described above in the presence of increasing concentrations, 10, 15, 20, and 25 μM, of unlabeled ATP and three concentrations of SCY, 2, 4, and 6 μM SCY. The results were plotted using the Grafit statistical analysis program.
To ascertain if inhibition of GST-PLK1, activity by SCY is time dependent, 3 μM and 10 μM SCY were pre-incubated with both enzyme and substrate for 0, 15, 30, and 45 minutes at room temperature. At the end of the pre-incubation period, ATP was added to initiate the activity assay. […] GST-PLK1, activity was reduced by about 58% and about 93% after preincubation with 3 μM and 10 μM SCY, respectively, which is consistent with the levels shown in FIG. 3.

[1] = system: rheumatoid synovial fibroblasts (RSFs); test: [3H]-thymidine incorporation assay, PDGF-BB stimulated rheumatoid synovial fibroblasts; assay type: cell-based, human; conditions: induced by platelet-derived growth factor (1 nM PDGF-BB); listed as SCY; read-out: IC50 rheumatoid synovial fibroblast proliferation
Experimental: To determine the effect of SCY on the proliferation of several cell types, proliferation was measured in response to growth factor or serum by tritiated thymidine uptake. Rheumatoid synovial fibroblasts (RSFs) obtained from Dr. Gene Mochan at PCOM (Philadelphia, Pa.), normal human lung fibroblasts (NHLFs) (Clonetics, San Diego, Calif.), human umbilical vein endothelial cells (HUVECs) (Clonetics, San Diego, Calif.), and Jurkat T cells (ATCC, Rockville, Md.) were plated in 96 well cell culture plates (Falcon, Franklin Lakes, N.J.). About 1.2×10^4 RSF cells/well and about 1×10^4 NHLF cells/well were plated in EMEM (Eagle's Minimum Essential Medium) (Sigma, St. Louis, Mo.) comprising 10 units penicillin-streptomycin (penstrep) (GibcoBRL, Grand Island, N.Y.) and 10% FBS. About 5×10^3 HUVEC cells/well were plated in CSC media (Cell Systems, Seattle, Wash.) with 10% FBS. Fibroblasts were allowed to adhere for about 6 to about 24 hours at 37° C., 5% CO2 and the media was changed to EMEM or CSC, 0.2% FBS and incubated for 24 hours. About 2×10^4 Jurkat T cells/well (ATCC, Rockville, Md.) were plated in RPMI (Gibco BRL, Grand Island, N.Y.), comprising 10% FBS and 10 units penstrep.
All cells were incubated with compound or vehicle (0.5% DMSO) for 15 minutes at room temperature. […] [^3H]-thymidine incorporation into the DNA was measured on a Packard Top-Count.

[2] = system: CAP-induced mouse ear edema; test: Capsaicin (CAP)-induced mouse ear edema assay; assay type: in vivo
Experimental: Various dilutions of test compounds were topically applied in acetone to the inside and outside surfaces of the left ears of mice in a solution comprising 0.1 μg RTX or 250 μg CAP per ear. A control, acetone, was applied to all right ears. After a 30 minute incubation, the mice were sacrificed, the ears removed, and bores taken and weighed.
For systemic studies, the test compounds were administered by intraperitoneal injection in a vehicle comprising 20% propylene glycol, 80% saline and 3 drops TWEEN-20 30 minutes or 1 hour prior to topical application of RTX or CAP. Control animals were injected with vehicle only. 0.1 μg RTX or 250 μg CAP was applied to the left ears and acetone was applied to the right ears. After 30 minutes of incubation, the mice were scarified, ears removed and bores taken and weighed.
Edema was measured by subtracting the weight of the right ear (control) from the weight of the left ear. The results were recorded as % decrease (inhibition) or % increase (potentiation) in edema relative to the control group edema.

T1 sequence (P53350 whole entry): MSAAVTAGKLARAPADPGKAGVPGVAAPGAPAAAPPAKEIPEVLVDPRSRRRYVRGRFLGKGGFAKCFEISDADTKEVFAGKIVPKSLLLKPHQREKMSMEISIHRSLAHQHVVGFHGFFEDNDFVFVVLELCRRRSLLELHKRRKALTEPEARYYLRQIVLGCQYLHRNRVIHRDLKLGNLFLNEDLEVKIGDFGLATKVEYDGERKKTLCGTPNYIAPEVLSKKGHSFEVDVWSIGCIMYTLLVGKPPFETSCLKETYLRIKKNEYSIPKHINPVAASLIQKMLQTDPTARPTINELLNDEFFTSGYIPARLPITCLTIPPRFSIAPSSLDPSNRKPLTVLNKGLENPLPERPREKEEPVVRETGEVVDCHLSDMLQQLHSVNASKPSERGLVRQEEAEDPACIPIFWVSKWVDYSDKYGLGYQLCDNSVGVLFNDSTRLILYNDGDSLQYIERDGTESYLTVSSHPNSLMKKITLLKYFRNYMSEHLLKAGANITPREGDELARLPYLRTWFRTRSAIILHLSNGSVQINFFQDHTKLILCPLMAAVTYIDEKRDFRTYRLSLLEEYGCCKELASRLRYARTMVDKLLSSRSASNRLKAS

scytonemin
reduction of GST-PLK1 activity (GST-PLK1; 3 μM SCY): about 58% | time dependence of GST-PLK1 inhibition (GST-PLK1; 3 μM and 10 μM, preincubation 0, 15, 30, 45 minutes): not time dependent | reduction of GST-PLK1 activity (GST-PLK1; 10 μM SCY): about 93% | IC50 (GST-PLK1; 10 μM unlabelled ATP, 60 minutes at 37° C., IC50±S.E.M., read-out: IC50 for inhibition of GST-PLK1 phosphorylation of GST-cdc25C): 1.95 ± 0.07 µM | Ki (GST-PLK1; ATP competition, read-out: Ki when fitted as an uncompetitive inhibitor): 2.3 ± 1.9 µM | Ki (GST-PLK1; ATP competition, read-out: Ki when fitting the data as a competitive inhibitor): 3 ± 1.9 µM | mechanism of inhibition of GST-PLK1 (GST-PLK1; ATP competition, double-reciprocal plot): mixed inhibitor | GST-cdc25C phosphorylation by GST-PLK1 (phosphorimage) (GST-PLK1; in the presence of 10 μM SCY): virtually no phosphorylated GST-cdc25C detectable | IC50 [1]: ~1.5 µM | inhibition of edema ([2]; systemic 10 mg/kg, 30 minutes before topical CAP): no inhibition of edema | inhibition of edema ([2]; topical 500 μg/ear against 250 μg/ear CAP): ~24%
